In ChEMBL document CHEMBL1201862, “PubChem BioAssay data set” (2004):
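Interpolation was linear, between the two tested concentrations surrounding the appropriate level; five concentrations were tested over 48 hours in 96-well plates. GI50 marks 50% less growth.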 Activity calls are given as the source filed them. Rule as the data show it: active = GI50 up to about 1.1 µM and inactive = higher.

Columns and labels:
Assay in all cases: NCI tumour cell line growth inhibition, 48 h
KM12 = tested on: KM12
UO-31 = tested on: UO-31
SK-MEL-28 = tested on: SK-MEL-28
HCC 2998 = tested on: HCC 2998
HCT-116 = tested on: HCT-116
A549 = tested on: A549
SF-268 = tested on: SF-268
SK-MEL-2 = tested on: SK-MEL-2
PC-3 = tested on: PC-3
ACHN = tested on: ACHN
SF-295 = tested on: SF-295
SNB-19 = tested on: SNB-19
CCRF-CEM = tested on: CCRF-CEM
HL-60 = tested on: HL-60
MDA-MB-435 = tested on: MDA-MB-435
786-0 = tested on: 786-0
NCI/ADR-RES = tested on: NCI/ADR-RES
SW-620 = tested on: SW-620
HT-29 = tested on: HT-29

Row | Compound | GI50 (KM12) | GI50 (UO-31) | GI50 (SK-MEL-28) | GI50 (HCC 2998) | GI50 (HCT-116) | GI50 (A549) | GI50 (SF-268) | GI50 (SK-MEL-2) | GI50 (PC-3) | GI50 (ACHN) | GI50 (SF-295) | GI50 (SNB-19) | GI50 (CCRF-CEM) | GI50 (HL-60) | GI50 (MDA-MB-435) | GI50 (786-0) | GI50 (NCI/ADR-RES) | GI50 (SW-620) | GI50 (HT-29)
1 | COC(=O)c1ccccc1/C=C1\Cc2ccc3ccccc3c2C1C (stereo unspecified) | 41.4 µM (inactive) | 42.1 µM (inactive) | > 100 µM (inactive) | > 100 µM (inactive) | 8.09 µM (inactive) | 51.3 µM (inactive) | > 100 µM (inactive) | > 100 µM (inactive) | 60.7 µM (inactive) | > 100 µM (inactive) | 70.8 µM (inactive) | > 100 µM (inactive) | 45.8 µM (inactive) | 24.1 µM (inactive) | 45.7 µM (inactive) | 81.5 µM (inactive) | 36 µM (inactive) | 93.3 µM (inactive) | 
2 | O=C(O)CC1NC(/C(=C/c2ccccc2O)NC(=O)c2ccccc2)OC1=O (stereo unspecified) | 5.14 µM (inactive) | 33.9 µM (inactive) | > 100 µM (inactive) | > 40.4 µM (inactive) | 45.9 µM (inactive) | > 100 µM (inactive) | > 23.3 µM (inactive) | 47.2 µM (inactive) | 49 µM (inactive) | 19.3 µM (inactive) | 26.6 µM (inactive) | 17.8 µM (inactive) | > 100 µM (inactive) | > 43.9 µM (inactive) | 9.29 µM (inactive) | 30.3 µM (inactive) | 19.5 µM (inactive) | > 100 µM (inactive) | > 96.6 µM (inactive)
3 | COC(=O)C1(Cc2ccccc2)Cc2ccccc2C1 | 21.8 µM (inactive) | 7.73 µM (inactive) | 26.9 µM (inactive) | 29.6 µM (inactive) | 17.3 µM (inactive) | 26.7 µM (inactive) | 23.1 µM (inactive) | 11.5 µM (inactive) | 29.7 µM (inactive) | 18.7 µM (inactive) | 36.5 µM (inactive) |  | 15.5 µM (inactive) | 14.3 µM (inactive) | 19.2 µM (inactive) | 22.7 µM (inactive) | 21.9 µM (inactive) | 35 µM (inactive) | 20.4 µM (inactive)
4 | CCOc1ccc(/N=C/C=C(\Cl)c2ccc3ccccc3c2)cc1 | 16.3 µM (inactive) | 15.2 µM (inactive) | 11.8 µM (inactive) | 0.022 µM (active) | 9.14 µM (inactive) | 29.8 µM (inactive) | 17.9 µM (inactive) | 19.6 µM (inactive) | 16.5 µM (inactive) | 17.7 µM (inactive) | 18.8 µM (inactive) | 16.4 µM (inactive) | 3.56 µM (inactive) | 8.59 µM (inactive) | 19.4 µM (inactive) | 12.8 µM (inactive) | 12.1 µM (inactive) | 7.33 µM (inactive) | 11.5 µM (inactive)
5 | C1=N\c2ccc(cc2)/N=C\c2ccccc2OCc2cccc(n2)COc2ccccc2/1 | > 100 µM (inactive) | > 100 µM (inactive) |  | > 100 µM (inactive) | > 100 µM (inactive) | > 100 µM (inactive) |  | > 100 µM (inactive) | > 100 µM (inactive) | 61.4 µM (inactive) | 76.9 µM (inactive) | 21.1 µM (inactive) | > 100 µM (inactive) | > 100 µM (inactive) | > 100 µM (inactive) | 45.5 µM (inactive) | > 100 µM (inactive) | > 100 µM (inactive) | > 100 µM (inactive)
6 | CN(C)CC1COC2Cc3ccccc3C1O2 (stereo unspecified) | > 100 µM (inactive) | > 100 µM (inactive) | > 100 µM (inactive) | > 100 µM (inactive) | > 100 µM (inactive) | > 100 µM (inactive) | > 100 µM (inactive) | > 100 µM (inactive) | > 100 µM (inactive) | > 100 µM (inactive) | > 100 µM (inactive) | > 100 µM (inactive) | > 100 µM (inactive) | 72.6 µM (inactive) | > 100 µM (inactive) | > 100 µM (inactive) | > 100 µM (inactive) |  | > 100 µM (inactive)
7 | O=C(O)COCC(=O)N(CCOCCN(Cc1ccccc1)C(=O)COCC(=O)O)Cc1ccccc1 | > 100 µM (inactive) |  | > 100 µM (inactive) | > 100 µM (inactive) | > 100 µM (inactive) | > 100 µM (inactive) | > 100 µM (inactive) | > 100 µM (inactive) | > 100 µM (inactive) | > 100 µM (inactive) | > 100 µM (inactive) | > 100 µM (inactive) | > 100 µM (inactive) | > 100 µM (inactive) | > 100 µM (inactive) | > 100 µM (inactive) | > 100 µM (inactive) | > 100 µM (inactive) | > 100 µM (inactive)
8 | O=C(/C=C/c1cccc2ccccc12)c1ccccc1 | 4.71 µM (inactive) | 11.6 µM (inactive) | 17.7 µM (inactive) | 15.7 µM (inactive) | 10.3 µM (inactive) | 15.2 µM (inactive) | 16.5 µM (inactive) | 14 µM (inactive) | 7.05 µM (inactive) | 13.9 µM (inactive) | 16.5 µM (inactive) | 14.5 µM (inactive) | 3.28 µM (inactive) | 2.88 µM (inactive) | 8.81 µM (inactive) | 8.83 µM (inactive) | 14 µM (inactive) | 4 µM (inactive) | 4.57 µM (inactive)
